US9447135B2, “Semi-synthetic mithramycin derivatives with anti-cancer activity” (UNIVERSITY OF KENTUCKY RESEARCH FOUNDATION, priority 2012, dated 2016)
Like-named read-outs stand apart in the source and are kept apart here.

Assays:
[1] = tested on: A673 Ewing sarcoma cell line; assay: 72 hour cytotoxicity, A673; assay type: cell-based; settings: Ewing sarcoma cell line A673, 72 hour
Method: (§1) The cytotoxicity of a subgroup of the MTM SA analogues was tested against various Ewing sarcoma cell lines and non-Ewing sarcoma cell lines over a 72 hour period. Each analogue was checked individually with a range of concentrations to determine the IC50 of the molecule in actively growing cell cultures.

[2] = target: T1, EWS-FLI1 promoter occupancy upstream from Nr0b1, Tgfbr2, and Rcor1 genes in TC32 cells (Homo sapiens, UniProt Q01543+Q01844); assay: EWS-FLI1 promoter occupancy by ChIP-RTPCR; assay type: cell-based
T1 construct: containing the 5′ region of EWS (Ewing sarcoma breakpoint region 1) and the 3′ ETS region of Fli-1; N-terminal part of EWS (EWSR1, Q01844), natural fusion partner from the translocation; endogenous in cells; host or cells: TC32 Ewing sarcoma cells
T1 sequence (Q01844+Q01543 fused): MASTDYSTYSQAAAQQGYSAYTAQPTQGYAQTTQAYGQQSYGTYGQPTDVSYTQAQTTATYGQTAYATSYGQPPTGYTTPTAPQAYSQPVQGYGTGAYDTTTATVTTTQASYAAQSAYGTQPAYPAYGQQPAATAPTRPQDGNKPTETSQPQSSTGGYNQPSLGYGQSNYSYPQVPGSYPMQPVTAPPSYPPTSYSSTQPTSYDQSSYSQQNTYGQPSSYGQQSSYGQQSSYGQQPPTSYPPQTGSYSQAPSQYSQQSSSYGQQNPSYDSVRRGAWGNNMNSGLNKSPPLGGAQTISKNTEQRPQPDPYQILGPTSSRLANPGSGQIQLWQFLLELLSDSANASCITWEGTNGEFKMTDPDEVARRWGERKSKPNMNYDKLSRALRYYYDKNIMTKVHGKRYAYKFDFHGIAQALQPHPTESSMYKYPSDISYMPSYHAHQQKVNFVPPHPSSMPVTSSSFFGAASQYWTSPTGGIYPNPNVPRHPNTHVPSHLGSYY
Method: (§2) Studies were conducted using MTM and lead analogs (mithramycin-SK (MTM-SK), mithramycin-SA-tryptophan (MTM-SA-Trp), and mithramycin-SA-phenylalanine (MTM-SA-Phe)). EWS-FLI1 promoter occupancy was investigated using chromatin immune precipitation real time PCR (ChIP-RTPCR). The effect of drug treatment on expression of genes controlled by EWSFLI1 was evaluated by quantitative real-time PCR (qRT-PCR) (FIG. 11). The effect of treatment with 100 nM of drug for 24 hours on cell cycle distribution was also compared among analogs (FIG. 12(b)). […] In addition, the maximum tolerated dose (MTD) and the effect of treatment on plasma total-calcium were used to assess relative toxicity in mice.
(§3) EWS-FLI1 promoter occupancy upstream from Nr0b1, Tgfbr2, and Rcor1 genes was evaluated in Ewing sarcoma cells (TC32 cells) by ChIP-RTPCR. […] (FIG. 11). […] (FIG. 12(a)). Furthermore, the effect of drug treatment appears to lead to differences in cell-cycle progression. […] (FIG. 12(b)).

[3] = tested on: OVCAR-8 non-Ewing sarcoma cell line; assay: 72 hour cytotoxicity, OVCAR-8; assay type: cell-based; settings: non-Ewing sarcoma cell line OVCAR-8, 72 hour
Method: as §1

[4] = tested on: genes controlled by EWS-FLI1 in TC32 cells; assay: Expression of genes controlled by EWS-FLI1 by qRT-PCR; assay type: cell-based; settings: 6 hours, dose dependent
Method: FIG. 11A, FIG. 11B, FIGS. 11C, 11D, and 11E provide a series of graphs showing that MTM analogs have increased cytoxicity and distinct cell cycle distribution in Ewing sarcoma. The graphs show relative gene expression in TC32 cells treated with MTM analogs. Three genes controlled by the EWS-FLI1 transcription factor were investigated by qRT-PCR at four different treatment concentrations for 6 hours. CCK served as a negative control.
as §2, §3

[5] = tested on: A549, human non-small cell lung cancer cells; assay: 72 hour cytotoxicity, A549 (resazurin); assay type: cell-based; settings: non-Ewing sarcoma cell line A549, 72 hour
Method: The cytotoxic effects of the side chain modifications of SA were investigated in order to determine whether the modification were beneficial to the drug structure. All cytotoxicity assays were performed with A549, human non-small cell lung cancer cells. A549 cells were cultured as specified from ATCC at 37° C., 5% CO2. The cells were added to a 96 well plate (5,000 cells/well) and permitted to attach for 24 h. After 24 h culture media were replaced with the side chain modified MTM SA derivative containing media at differing concentrations. The cells were incubated with the drug containing media for 72 hrs total (n=8). Cell viability was determined using a resazurin assay that signifies mitochondrial metabolic activity in living cells. […] of a 1 mM resazurin solution in PBS was added to the control and analogue-treated cells at the end of the treatment period. Cell viability was determined three hours later by reading the fluorescence at 560 nm (Ex)/590 nm (Em). The fluorescence signals were quantified using a Spectramax M5 plate reader (Molecular Devices) equipped with a SoftMaxPro software. Cytotoxicity was determined by calculating the half maximal inhibitory concentration (IC50) of each sample.
as §1

[6] = tested on: VCaP non-Ewing sarcoma cell line; assay: 72 hour cytotoxicity, VCaP; assay type: cell-based
Method: as §1

[7] = tested on: TC71 Ewing sarcoma cell line; assay: 72 hour cytotoxicity, TC71; assay type: cell-based; settings: Ewing sarcoma cell line TC71, 72 hour
Method: as §1

[8] = tested on: PC3 non-Ewing sarcoma cell line; assay: 72 hour cytotoxicity, PC3; assay type: cell-based; settings: non-Ewing sarcoma cell line PC3, 72 hour
Method: as §1

[9] = tested on: U118 non-Ewing sarcoma cell line; assay: 72 hour cytotoxicity, U118; assay type: cell-based; settings: non-Ewing sarcoma cell line U118, 72 hour
Method: as §1

[10] = tested on: ES-4 Ewing sarcoma cell line; assay: 72 hour cytotoxicity, ES-4; assay type: cell-based; settings: Ewing sarcoma cell line ES-4, 72 hour
Method: as §1

[11] = tested on: ES-8 Ewing sarcoma cell line; assay: 72 hour cytotoxicity, ES-8; assay type: cell-based; settings: Ewing sarcoma cell line ES-8, 72 hour
Method: as §1

[12] = tested on: TC32 Ewing sarcoma cell line; assay: 72 hour cytotoxicity, TC32; assay type: cell-based; settings: Ewing sarcoma cell line TC32, 72 hour
Method: as §1

Ewing cell lines = assay: In vitro efficacy, GI50 (72-hr) in Ewing cell lines; assay type: cell-based; settings: Ewing cell lines (n=8)
[13] = tested on: ES-3 Ewing sarcoma cell line; assay: 72 hour cytotoxicity, ES-3; assay type: cell-based; settings: Ewing sarcoma cell line ES-3, 72 hour
Method: as §1

TC32 cells = assay: Cell cycle distribution, FACS analysis; assay type: cell-based; settings: 100 nM of drug for 24 hours
Method: FIG. 12(b) is a FACs analysis of TC32 cells treated with 100 nM of drug for 24 hours.
as §2, §3

[14] = tested on: RDES Ewing sarcoma cell line; assay: 72 hour cytotoxicity, RDES; assay type: cell-based
Method: as §1

[15] = tested on: ES-7 Ewing sarcoma cell line; assay: 72 hour cytotoxicity, ES-7; assay type: cell-based; settings: Ewing sarcoma cell line ES-7, 72 hour
Method: as §1

[16] = tested on: HCT-116 non-Ewing sarcoma cell line; assay: 72 hour cytotoxicity, HCT-116; assay type: cell-based; settings: non-Ewing sarcoma cell line HCT-116, 72 hour
Method: as §1

[17] = tested on: SK-ES-1 Ewing sarcoma cell line; assay: 72 hour cytotoxicity, SK-ES-1; assay type: cell-based; settings: Ewing sarcoma cell line SK-ES-1, 72 hour
Method: as §1

[18] = tested on: Ewing sarcoma (TC32, 5838, SKES1) and non-Ewing (A459 (lung) and PC3 (prostate)) cancer cell lines; assay: Selectivity assay, Ewing sarcoma versus non-Ewing cell panel (72 hr cytotoxicity)
[19] = tested on: DU145 non-Ewing sarcoma cell line; assay: 72 hour cytotoxicity, DU145; assay type: cell-based; settings: non-Ewing sarcoma cell line DU145, 72 hour
Method: as §1

[20] = tested on: 5838 Ewing sarcoma cell line; assay: 72 hour cytotoxicity, 5838; assay type: cell-based; settings: Ewing sarcoma cell line 5838, 72 hour
Method: as §1

[21] = 72 hour cytotoxicity, RH30; assay type: cell-based; settings: Ewing sarcoma cell line RH30, 72 hour; read-out: IC50 (nM) RH 30
Method: as §1

[22] = tested on: ES-2 Ewing sarcoma cell line; assay: 72 hour cytotoxicity, ES-2; assay type: cell-based; settings: Ewing sarcoma cell line ES-2, 72 hour
Method: as §1

[23] = tested on: C42 non-Ewing sarcoma cell line; assay: 72 hour cytotoxicity, C42; assay type: cell-based; settings: non-Ewing sarcoma cell line C42, 72 hour
Method: as §1

[24] = tested on: several cancer cell lines; settings: cited from earlier work

COC(=O)C(Cc1cccc2[nH]ccc12)NC(=O)[C@@H](OC)[C@@H]1Cc2cc3cc(OC4CC(OC5CC(O)C(O)C(C)O5)C(O)C(C)O4)c(C)c(O)c3c(O)c2C(=O)[C@H]1OC1CC(OC2CC(OC3CC(C)(O)C(O)C(C)O3)C(O)C(C)O2)C(O)C(C)O1 (some centres unmarked) [MTMSA-Trp]
IC50 ([1]; Homo sapiens): 44 nM
effect on FLI1 binding to promoters (ChIP-RTPCR) [2]: the most destabilizing
IC50 ([3]; Homo sapiens): 72 nM
rank-order of efficiency of mRNA down-regulation (qRT-PCR) [4]: MTM-SA-Trp>MTM=MTM-SK
IC50 ([5]; Homo sapiens): 87 nM
IC50 ([6]; Homo sapiens): 20 nM
IC50 ([7]; TC-71): 34 nM
IC50 [8]: 45 nM
IC50 [9]: 56 nM
IC50 [10]: 33 nM
IC50 [11]: 40 nM
IC50 ([12]; Homo sapiens, TC-32): 18 nM
potency (GI50) among Ewing cell lines compared to other analogs (Ewing cell lines): relatively higher potency (lower GI50)
IC50 [13]: 64 nM
cell cycle distribution (TC32 cells): increased S-phase accumulation
IC50 ([14]; RD-ES): 39 nM
IC50 [15]: 41 nM
IC50 ([16]; Homo sapiens): 23 nM
IC50 ([17]; Homo sapiens, SK-ES1): 38 nM
selectivity against Ewing sarcoma cells relative to non-Ewing cells ([18]; FIG. 9, right panel): 9 fold
more potent than MTM ([18]; against Ewing sarcoma cells, relative to MTM): about 3 fold
higher selectivity than MTM against Ewing sarcoma relative to non-Ewing cell lines ([18]; relative to MTM, 72 hr): 3 fold
IC50 ([19]; Homo sapiens, DU-145): 31 nM
IC50 [20]: 10 nM
IC50 [21]: 48 nM
IC50 [22]: 63 nM
IC50 [23]: 96 nM

CO[C@@H]([C@@H]1Cc2cc3cc(O[C@H]4C[C@@H](O[C@H]5C[C@@H](O)[C@H](O)[C@@H](C)O5)[C@H](O)[C@@H](C)O4)c(C)c(O)c3c(O)c2C(=O)[C@H]1O[C@H]1C[C@@H](O[C@H]2C[C@@H](O[C@H]3C[C@](C)(O)[C@H](O)[C@@H](C)O3)[C@@H](O)[C@@H](C)O2)[C@H](O)[C@@H](C)O1)[C@@H](O)C(C)=O [MTMSK, reference compound]
activity compared to the parent MTM [24]: increased activity
IC50 [1]: 37 nM
effect on FLI1 binding to promoters (ChIP-RTPCR) [2]: mostly stabilize FLI1
IC50 [3]: 29 nM
rank-order of efficiency of mRNA down-regulation (qRT-PCR) [4]: MTM-SA-Trp>MTM=MTM-SK
IC50 [5]: 30 nM
IC50 [6]: 36 nM
IC50 [7]: 31 nM
IC50 [8]: 37 nM
IC50 [10]: 32 nM
IC50 [11]: 44 nM
IC50 ([12]; read-out: IC50 (nM) TC 32): 23 nM
IC50 [13]: 56 nM
cell cycle distribution (TC32 cells): primarily in G1/G2 phase
IC50 [14]: 40 nM
IC50 [15]: 42 nM
IC50 [16]: 31 nM
IC50 [17]: 25 nM
IC50 ([19]; read-out: IC50 (nM) DU 145): 32 nM
IC50 [20]: 23 nM
IC50 [21]: 62 nM
IC50 [22]: 39 nM
IC50 [23]: 89 nM
